Laboratory results reported in EP4817425A1, “COMPOSITION AND SOLID MOLDED BODY” (Nagase & Co., Ltd., priority 2023, dated 2025).

Assay: Screening test of saccharides: thickness of tableted product tableted to hardness 5 N
Format: physicochemical
Settings: protein powder and saccharide weight ratio 1:1, tableted to hardness 5 N; compared among eight saccharides (Fig. 1)
Source text: The tableting characteristics of various saccharides were confirmed, and saccharides suitable for the production of a solid molded body were screened. First, 2.0 g each (within an error of 0.003 g) of a protein powder (WPC392 manufactured by Fonterra Japan Limited) and any one of the saccharides shown below were weighed and mixed to prepare a composition containing 50 parts by weight each of the protein and the saccharide (weight ratio 1:1). Each of the obtained compositions was tableted with the tableting force appropriately adjusted so that the composition would have a hardness of 5 N after being tableted. As a result, a tableted product having a hardness of 5 N was obtained. The thickness of the obtained tableted product was measured. Note that in the Examples, the thicknesses of a tableted product and a solid molded body are values each measured using a caliper (ABS digimatic caliper CD-AX, manufactured by Mitutoyo Corporation), and the hardnesses of a tableted product and a solid molded body are values each measured using a load cell type tablet hardness tester (PC-30 manufactured by OKADA SEIKO CO., LTD.).

OC[C@H]1O[C@H](O[C@H]2[C@H](O)[C@@H](O)C(O)O[C@@H]2CO)[C@H](O)[C@@H](O)[C@@H]1O (mixture of isomers) [maltose, Maltose]
thickness of the tableted product: largest thickness
